Source: article PMC12505664, “Enflicoxib for the long-term management of canine osteoarthritis—External validation of a population pharmacokinetic model in dogs with osteoarthritis” (Frontiers in Veterinary Science, 2025)
Like-named read-outs stand apart in the source and are kept apart here.

How the values were obtained:
[1] = tested on: canine osteoarthritis; set-up: method as in Salichs et al., Vet Rec. 2022; conditions: Mavacoxib group n=58, ref Salichs et al., Vet Rec. 2022, cited from earlier work
[2] = set-up: method as in PMID 34854245; conditions: popPK model, cited from earlier work
[3] = Plasma levels of enflicoxib and pyrazol metabolite in the 6-month field clinical study (HPLC-MS/MS); format: in vivo, client-owned dogs with OA; conditions: for Mean plasma level: oral 8 mg/kg then 4 mg/kg weekly
Procedure: A prospective, multisite, blinded, randomized, placebo-controlled, parallel-group field study was performed in accordance with Good Clinical Practice standards ([16]). The study aimed to confirm the safety and efficacy of enflicoxib treatment of pain and inflammation associated with naturally occurring canine OA in dogs of any breed and sex treated for 6 months. The protocol was approved by the regulatory authorities of both Portugal and Hungary. Written informed consent was obtained from all dog owners prior to enrolment of their dogs. Dogs remained under the care of their owners at home throughout the study.
Before enrolment, all dogs underwent a physical examination, and blood and urine samples were taken. After enrollment, dogs were randomized in a predefined enflicoxib:placebo ratio of 3:1. Enflicoxib was dosed orally at weekly intervals, with an initial dose of 8 mg/kg, followed by once-a-week maintenance doses of 4 mg/kg for a total of 26 weeks. Dogs in the enflicoxib group received Daxocox® tablets (Ecuphar/Animalcare group), while dogs in the placebo group received the same formulation without the active ingredient under the same posology (number of tablets and dosing interval). […] No positive control was included due to difficulties in maintaining blinding with products under different posology during the entire follow-up period.
Two blood samples for popPK analysis were collected from all animals enrolled in the study one on day 44(±2 days)/1.5 months, (similar to the last sample taken in the previous clinical studies), after clinical assessment of pain and lameness and prior to treatment administration and another one at the end of the study on day 189/6 months (±2 days), or individual premature study termination day. Day 189 corresponds to the trough concentration after the 27th weekly administration (PK sample taken at the end of the weekly dosing interval). Meanwhile, day 44 corresponds to a PK sample obtained 2 days after the 7th weekly administration. The veterinary practices had the necessary resources and adequate freezing equipment for the long-term storage of plasma samples. Blood samples were collected into potassium-3-ethylenediaminetetraacetic acid (K3EDTA) labeled tubes, which were immediately centrifuged at ~2,500g for 10 min (at +4 °C whenever possible) to obtain plasma. Once received, plasma was transferred into two labeled propylene tubes (aliquots 1 and 2). Each plasma aliquot was stored frozen at a nominal temperature of −20 (±2) °C until shipment to the Laboratory of analysis Welab Barcelona (Parc Científic de Barcelona, C/Baldiri Reixac 4-12, 08028, Barcelona). The maximum storage time for the samples was 376 days at nominally −20 °C/−80 °C. Considering the long-term stability of enflicoxib and its metabolite in dog plasma samples stored at −20 °C, which spans a minimum of 402 days, the stability of the study samples was guaranteed for the entire duration of the study. Samples were analyzed without information on the treatment allocation (laboratory-blinded study).
Enflicoxib and pyrazol metabolite plasma levels were measured by a previously fully validated high-performance liquid chromatography (HPLC)-method coupled with tandem mass spectrometry (MS/MS) detection as described in Homedes et al. ([4]).

[4] = Maximum a posteriori Bayesian (MAPB) estimation of individual PK parameters in dogs with OA; format: in vivo
Description: As a similar PK behavior between populations was concluded, the same popPK model could be used, and a Bayesian approach was used for the determination of individual enflicoxib and the pyrazol metabolite exposure in osteoarthritic animals.
A maximum a posteriori Bayesian (MAPB) estimation using the post hoc subroutine in NONMEM was used to provide the individual PK parameters in osteoarthritic dogs.
MAPB estimation applied likelihood maximization in the form of minimizing the objective function (minus 2 log likelihood), to estimate individual PK parameters of each dog with OA. In this analysis, the MAPB estimation incorporated both a priori PK information, that is, the established PK model of enflicoxib and the pyrazol metabolite in healthy Beagle dogs, and a posteriori PK data, which corresponds to PK data from osteoarthritic dogs. The individual PK parameters along with individual predicted PK profiles for each dog treated with enflicoxib were calculated by fitting the animal PK dataset, which includes dosing, sampling times, parent and metabolite levels, and covariate information, to the established population enflicoxib and the pyrazol metabolite PK model in healthy Beagle dogs.
The maximum a posteriori Bayesian (MAPB) estimation was applied to provide the most likely individual PK profile for each dog with OA, using the “POSTHOC” subroutine and $ESTIMATION command set to MAXEVAL=0 in NONMEM.
Individual PK parameters and individual PK profiles of enflicoxib and the pyrazol metabolite were estimated for each dog.
Finally, the Bayesian approach enabled the estimation of the main individual PK parameters of enflicoxib and the pyrazol metabolite. Using these individual PK parameters, predicted profiles for each animal were estimated, allowing the calculation of the derived exposure parameters, such as Cmax, Cmin, AUCτ, and T1/2 in all treated dogs. The distribution and the mean estimates of enflicoxib and the pyrazol metabolite PK parameters at selected time points are depicted in Supplementary Figures S3, S4, respectively.

[5] = set-up: method as in PMID 34160092; conditions: Beagle dogs, oral enflicoxib; cited from earlier work
[6] = set-up: method as in PMID 34160092; conditions: previously validated method, cited from earlier work
[7] = overdose study, repeated weekly administrations, Beagle dogs; cited from earlier work
[8] = metabolite, typical value at 9.9 kg
[9] = weeks 12–26, Bayesian predicted profiles

## NS(=O)(=O)c1ccc(-n2nc(C(F)(F)F)cc2-c2ccc(F)cc2)cc1 [Mavacoxib]
[1]; AEs classified A, B or O
  Number of animals presenting AEs (%): Emesis or nausea: 4 (6.9)
[1]; AEs related to the GI system
  Emesis and nausea: Number of events: 6
[1]
  Diarrhoea / pasty stools: Duration range: 1 to 4 days
  Diarrhoea / pasty stools: Mean duration: 2 days
  Diarrhoea / pasty stools: Number of events: 3
  Diarrhoea / pasty stools: Treatment needed: 0
  Emesis and nausea: Mean duration: 4.2 days
  Emesis and nausea: Treatment needed: 2
  Number of animals presenting AEs (%): Abdominal pain: 0
  Number of animals presenting AEs (%): Acute renal failure: 1 (1.7)
  Number of animals presenting AEs (%): Apathy: 0
  Number of animals presenting AEs (%): Constipation: 1 (1.7)
  Number of animals presenting AEs (%): Diarrhoea or pasty stools: 3 (5.2)
  Number of animals presenting AEs (%): Increased salivation: 0
  Number of animals presenting AEs (%): Polydipsia: 0
  Number of animals presenting AEs (%): Total: 6 (10.3)
  Number of animals presenting AEs (%): Weight loss: 0
[1]; upper end one animal
  Emesis and nausea: Duration range: 1 to 14 days

## NS(=O)(=O)c1ccc(-n2nc(C(F)(F)F)cc2-c2ccc(F)cc2F)cc1 [Pyrazol metabolite]
[2]; interindividual variability as % CV
  IIV of CLM/F (apparent clearance): 31%
[2]; log error model, % CV
  Residual variability: 20%
[2]; [8]
  CLM/F = θ7·(WGT/9.9)^0.75, θ7 estimate (apparent clearance): 0.111 L/h
  VM/F = θ4·(WGT/9.9)^1.0, θ4 estimate (apparent volume of distribution, central compartment): 6.59 L
[3]; day 44 (2 days after 7th weekly administration), N=75
  Mean plasma level: 2,105.6 ng/mL
[3]; day 44, N=75
  Max plasma level: 4,728.5 ng/mL
  Min plasma level: 2.5 ng/mL
  Probability (%) concentration < 10 ng/mL: 4.0%
  Probability (%) concentration < LOQ: 4.0%
[3]; day 44, N=75, listed as pyrazol metabolite
  Probability (%) concentration < 10 ng/mL: 4%
[3]; day 93 (premature study termination), N=2
  Mean plasma level: 3,928.8 ng/mL
[3]; day 93, N=2
  Max plasma level: 5,029.0 ng/mL
  Min plasma level: 2,828.5 ng/mL
  Probability (%) concentration < 10 ng/mL: 0.0%
  Probability (%) concentration < LOQ: 0.0%
[3]; day 189 (trough after 27th weekly administration), N=65
  Mean plasma level: 2,317.4 ng/mL
[3]; day 189, N=65
  Max plasma level: 7,541.8 ng/mL
  Min plasma level: 2.5 ng/mL
  Probability (%) concentration < 10 ng/mL: 4.6%
  Probability (%) concentration < LOQ: 1.5%
[3]; day 189, N=65, listed as pyrazol metabolite
  Probability (%) concentration < 10 ng/mL: 5%
[4]; 6 months of weekly treatment
  Time-dependent pharmacokinetics or over-accumulation: no evidence of time-dependent pharmacokinetics or over-accumulation
[4]; weekly treatment
  Time to PK steady-state: 10–12 weeks
[4]; [9]
  AUCτ: 16,742 ng/ml·day
  Cmax: ~ 2,490 ng/mL
  Cmin: 2,243 ng/mL
[5]
  mean terminal elimination half-life (t 1/2): 17 days
[6]; following 4 freeze–thaw cycles
  Stability in dog plasma: stable
[6]; nominally −20 °C for 402 days
  Stability in dog plasma: stable
[6]; room temperature for 4 h
  Stability in dog plasma: stable
[6]; stored at −20 °C
  Long-term stability in dog plasma samples: ≥ 402 days
[7]
  Dose proportionality of pharmacokinetics: dose-proportional pharmacokinetics
